Experiment [1] has as its target T1, BB3 (Homo sapiens, UniProt P32247).
T1 construct: hIL-2Ra signal peptide (N); expressed in transfected cells
T1 sequence (P32247 2-399 limits assumed): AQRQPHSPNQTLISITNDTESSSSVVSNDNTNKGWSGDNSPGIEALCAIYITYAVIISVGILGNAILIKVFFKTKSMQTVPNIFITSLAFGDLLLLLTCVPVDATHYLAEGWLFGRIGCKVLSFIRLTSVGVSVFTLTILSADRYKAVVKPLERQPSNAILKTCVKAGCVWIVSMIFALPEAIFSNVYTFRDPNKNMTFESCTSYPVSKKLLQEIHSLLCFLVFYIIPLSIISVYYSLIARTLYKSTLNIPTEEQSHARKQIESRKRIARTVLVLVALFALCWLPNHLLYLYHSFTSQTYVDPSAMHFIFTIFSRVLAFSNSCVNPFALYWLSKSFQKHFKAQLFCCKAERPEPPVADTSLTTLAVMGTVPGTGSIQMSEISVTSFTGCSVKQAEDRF
Briefly: Dynamic mass redistribution (DMR), concentration-response. It counts as cell-based.

The target in experiment [2] is T1, BB3. Briefly: Real-time receptor internalization (TR-FRET), concentration-response. The experiment is classed as cell-based.
Experiment [3] deals with T2, GPR1 (Homo sapiens, UniProt P46091).
T2 sequence (P46091 1-355): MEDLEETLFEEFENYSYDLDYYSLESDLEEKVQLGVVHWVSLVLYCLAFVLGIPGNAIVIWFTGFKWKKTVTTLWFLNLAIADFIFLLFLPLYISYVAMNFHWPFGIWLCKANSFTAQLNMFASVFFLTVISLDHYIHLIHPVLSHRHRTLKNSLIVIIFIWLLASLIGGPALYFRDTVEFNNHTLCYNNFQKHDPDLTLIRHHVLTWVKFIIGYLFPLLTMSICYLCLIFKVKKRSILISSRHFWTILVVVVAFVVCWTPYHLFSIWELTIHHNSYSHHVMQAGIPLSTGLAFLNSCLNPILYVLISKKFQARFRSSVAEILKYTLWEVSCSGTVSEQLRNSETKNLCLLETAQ
Briefly: β-arrestin recruitment (PathHunter). It counts as cell-based. Conditions: GPR1; mean, SEM and n; read-out: pEC50, PathHunter (fold over basal) (converted). Here is the method: PathHunter eXpress Assays (DiscoverX) were performed in 384-well format according to the manufacturer’s recommendations. GPR1 cells were incubated with peptides for 90 min and luminescence measured using an EnSpire 2300 Multimode plate reader (PerkinElmer).
Background: Activated receptors often draw arrestin, which recruitment assays turn into a signal.

Experiment [4] has as its target T3, BB3 (Homo sapiens, UniProt P32247).
T3 construct: host or cells: HTLA cells (HEK293-derived)
T3 sequence (P32247 1-399): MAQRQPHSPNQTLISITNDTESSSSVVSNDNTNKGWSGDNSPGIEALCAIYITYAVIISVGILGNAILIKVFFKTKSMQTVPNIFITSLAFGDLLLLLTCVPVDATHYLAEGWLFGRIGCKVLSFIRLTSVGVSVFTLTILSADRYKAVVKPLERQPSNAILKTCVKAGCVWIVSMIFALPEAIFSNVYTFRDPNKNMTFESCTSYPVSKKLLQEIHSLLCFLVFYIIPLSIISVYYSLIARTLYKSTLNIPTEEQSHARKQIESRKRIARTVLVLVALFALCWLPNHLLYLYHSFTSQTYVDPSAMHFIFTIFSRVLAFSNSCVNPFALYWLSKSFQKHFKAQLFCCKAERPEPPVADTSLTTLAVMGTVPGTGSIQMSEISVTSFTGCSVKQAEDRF
Briefly: β-arrestin recruitment (Tango), validation. The experiment is classed as cell-based. As to the method:
The peptide library was additionally screened against 120 GPCR targets in parallel, including all available orphan receptors and 27 known class A peptide receptors using the Tango assay platform ([Kroeze et al., 2015]). Briefly, HTLA cells (a HEK293 cell line stably expressing a tTA-dependent luciferase reporter and a β-arrestin2-TEV fusion gene) were plated 10,000 cells/well in poly-L-lysine–coated clear-bottom white 384-well plates in DMEM supplemented with 10% FBS, 100 U/ml penicillin and 100 μg/ml streptomycin, 2 μg/ml puromycin and 100 μg/ml hygromycin B. 24 hr later, cells were transfected with Tango GPCR constructs using the calcium phosphate method ([Jordan et al., 1996]). The next day, culture medium was changed to DMEM + 1% dFBS and 10 μM peptides were added for overnight stimulation. Bright-Glo solution (Promega) was incubated for 15–20 min at room temperature, and luminescence was counted using a Trilux luminescence counter (Wallac).
For subsequent peptide validation experiments using Tango assays, HTLA cells were transiently transfected in 10 cm dishes with the receptor of interest using polyethylenimine (PEI) ([Longo et al., 2013]). After 24 hr, 25,000 cells/well were plated in clear bottom, white-walled 384-well plates. Assays were performed as described above, with luminescence measured using an EnSpire 2300 Multimode plate reader (PerkinElmer). Luminescence counts were exported into Excel and were analyzed using GraphPad Prism 7.

Experiment [5] has as its target T1, BB3. Briefly: IP1 accumulation (Gq/11), HTRF. The experiment is classed as cell-based. For orientation: In TR-FRET formats the signal depends on donor and acceptor labels being close together.
Experiment [6] deals with T2, GPR1. Briefly: β-arrestin recruitment (Tango), validation. The conditions noted are these: pEC50, Tango (fold over basal), GPR1; mean, SEM and n. The experiment is classed as cell-based. More on the design: host or cells: HTLA cells (HEK293-derived).
In the next experiment the test system is human GPCRs. More on the design: method as in Guide to Pharmacology database. Conditions: max reported value, ref Guide to Pharmacology database, cited from earlier work. From the text:
Supplement mmc1.xlsx, sheet "HumanGPCRLigands" | column: pKi_value; pKd_value; pEC50_value; pIC50_value

The target in experiment [7] is T4, GPR68 (Homo sapiens, UniProt Q15743). Briefly: Real-time receptor internalization (TR-FRET), concentration-response. It counts as cell-based. More on the design: hIL-2Ra signal peptide (N); expressed in transfected cells. Conditions: receptor GPR68; mean, SEM and n (3). Here is the method: (§1) 48 hr prior to parallel assaying, SNAP-tagged oGPCR cells were plated (10,000 cells/well) in fibronectin-coated 384-well Epic biosensor microplates (Corning) and poly-D-lysine coated white 384-well plates (for internalization assays). SNAP- GLP-1 receptor was plated alongside orphan receptor cells as an internal assay control for internalization assays. Receptor-expression was induced with 0.1 μg/ml doxycycline.
A TR-FRET real-time internalization assay was used to examine peptide-dependent changes in orphan receptor localization as described previously ([Foster and Bräuner-Osborne, 2018]). Surface-expressed SNAP-tagged receptors were labeled with a cell-impermeable luminescent terbium cryptate (100 nM SNAP Lumi4-Tb; Cisbio, France) for 1 hr at 37°C. Cells were washed to remove excess terbium and incubated with fluorescein-O-acetic acid (100 μM; Sigma Aldrich) for 5 min at 37°C. Peptides were added as for DMR assays, and internalization responses were recorded for 60 min at 37°C using an EnVision 2104 Multimode plate reader (PerkinElmer). 100 nM GLP-1 was used as a positive control for SNAP-GLP1R internalization. Real-time internalization responses were calculated based on TR-FRET (excitation 340 nm; emission 520 nm and 615 nm), and were expressed as the ratio between donor (terbium) and acceptor (fluorescein) emission. For peptide screening analysis (both DMR and internalization assays), we calculated the area under the curve from the real-time traces. As the magnitude of the responses was variable between orphan receptor targets, particularly for the SNAP-tag based internalization assay where the signal is dependent on receptor surface expression, the AUC values were normalized to their respective plate averages and expressed as fold change. Validation experiments for receptor internalization were performed as above. Internalization data was processed in MS-Excel and area under the curve was used to generate concentration-response curves using GraphPad Prism 7.0. Data represent mean ± standard error of the mean (SEM) from at least 3 biologically independent experiments.

Experiment [8] concerns the target T4, GPR68. Briefly: Dynamic mass redistribution (DMR), concentration-response. Conditions: receptor GPR68; mean, SEM and n (3-4). More on the design: hIL-2Ra signal peptide (N); expressed in transfected cells. It counts as cell-based. As to the method: as §1
DMR assays provide a single integrated readout of ligand-dependent cellular response, utilizing an optical biosensor in specialized microplates to detect wavelength shifts of reflected light as it passes through the biosensor and the lower portion of the cell (∼150-200 nm). As a signal pathway agnostic approach, DMR assays are well-suited to the study of GPCRs ([Fang et al., 2008], [Schröder et al., 2011]). The mass redistribution response (Δ picometer (pm)) likely reflects a number of intracellular events, including cytoskeletal rearrangement, protein trafficking and receptor internalization. Orphan receptor-expressing cells were gently washed twice with assay buffer (HBSS with 1 mM CaCl2, 1 mM MgCl2, 20 mM HEPES, 0.01% pluronic F-68, pH 7.4) containing 0.1% DMSO and cells were equilibrated for 90 min at 22°C in the EPIC Benchtop (BT) System (Corning) to establish a stable DMR signal. After 3-5 min baseline recordings, peptides (10 μM) were added in duplicate wells using an electronic 384-channel Viaflo pipette (Integra Biosciences, Switzerland) and DMR responses were measured for 60 min at 22°C. 100 nM norepinephrine was included as an internal assay control to assess the cellular DMR response via endogenously-expressed adrenoceptors in the TREx 293 cells. Real-time data were processed using the BT to column converter MS-Excel macro (Corning) and analyzed in GraphPad Prism 7.0. DMR recordings in peptide screening experiments were buffer and solvent corrected and the area under the curve (AUC) was quantified. For subsequent validation experiments, peptides were diluted in assay buffer containing 0.1% DMSO and DMR assays were performed as above. […] Data represent mean ± standard error of the mean (SEM) from at least 3 biologically independent experiments.

Where [9] appears, read: receptor grpr_human (GRPR, P30550).
Setting [10] is: HTLA cells transiently transfected, overnight stimulation, luciferase, mean ± SEM of 3-4 independent experiments in triplicate, read-out: pEC50, β-arrestin recruitment (Tango), BB3 (converted).

This is an account of results in publication PMC6838683, “Discovery of Human Signaling Systems: Pairing Peptides to G Protein-Coupled Receptors” (Cell, 2019).

Like-named read-outs stand apart in the source and are kept apart here.

T4 sequence (Q15743 2-365 limits assumed): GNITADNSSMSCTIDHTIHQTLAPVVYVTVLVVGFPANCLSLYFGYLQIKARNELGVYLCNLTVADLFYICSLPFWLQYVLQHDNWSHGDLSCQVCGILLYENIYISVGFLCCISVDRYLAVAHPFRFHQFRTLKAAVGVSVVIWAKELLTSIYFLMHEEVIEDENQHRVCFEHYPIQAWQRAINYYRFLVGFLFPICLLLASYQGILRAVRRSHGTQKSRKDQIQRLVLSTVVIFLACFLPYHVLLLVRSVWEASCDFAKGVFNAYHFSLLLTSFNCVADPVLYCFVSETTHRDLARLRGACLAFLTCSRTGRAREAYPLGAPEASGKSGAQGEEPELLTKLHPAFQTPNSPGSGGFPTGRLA

For `CSCC[C@H](NC(=O)[C@H](CC(C)C)NC(=O)[C@H](Cc1c[nH]cn1)NC(=O)CNC(=O)[C@@H](NC(=O)[C@H](C)NC(=O)[C@H](Cc1c[nH]c2ccccc12)NC(=O)[C@H](Cc1c[nH]cn1)NC(=O)[C@H](CC(N)=O)NC(=O)CNC(=O)[C@H](CCCN=C(N)N)NC(=O)[C@@H]1CCCN1C(=O)[C@H](Cc1ccc(O)cc1)NC(=O)[C@H](CCSC)NC(=O)[C@H](CCCCN)NC(=O)[C@@H](NC(=O)[C@H](CC(C)C)NC(=O)[C@@H](NC(=O)[C@@H](NC(=O)CNC(=O)CNC(=O)CNC(=O)[C@H](C)NC(=O)[C@@H]1CCCN1C(=O)[C@H](CC(C)C)NC(=O)[C@@H]1CCCN1C(=O)[C@@H](N)C(C)C)[C@@H](C)O)C(C)C)[C@@H](C)O)C(C)C)C(N)=O` [Gastrin-releasing peptide (GRP)], the EC50 at BB3 [1] (pEC50, DMR (peak), BB3, mean, SEM and n) was 2040 nM; on BB3 [2] (pEC50, Internalization (AUC)), 14800 nM; on GPR1 [3], 398 nM; on BB3 [4] (BB3, mean, SEM and n, read-out: pEC50, Tango (fold over basal) (converted)), 43700 nM; at BB3 [5] (pEC50, IP1 (nM), BB3, mean, SEM and n), 447 nM; on GPR1 [6], 5500 nM.
With `CSCC[C@H](NC(=O)[C@H](Cc1ccccc1)NC(=O)[C@H](Cc1c[nH]cn1)NC(=O)CNC(=O)[C@@H](NC(=O)[C@H](C)NC(=O)[C@H](Cc1c[nH]c2ccccc12)NC(=O)[C@H](CC(C)C)NC(=O)[C@H](CC(N)=O)NC(=O)CN)[C@@H](C)O)C(N)=O` [Peptide 59, Neuromedin B, reference compound], the EC50 at BB3 [1] was 37.2 nM; on BB3 [2] (BB3, mean, SEM and n, read-out: pEC50, Internalization (AUC) (converted)) it was 1950 nM; on BB3 [4] (setting [10]), 2000 nM; at BB3 [5] (pEC50, IP1 accumulation (Gq/11), BB3, HTRF IP-One, 30 min, 37°C, mean ± SEM of 3-4 independent experiments in triplicate, peptide 158 n = 2), 407 nM. Further, the “Emax, DMR (peak)” value on BB3 [1] (BB3, mean, SEM and n) is 183.2. Further, the “Emax, Internalization (AUC)” value at BB3 [2] (BB3, mean, SEM and n) turned out to be 26.4. Further, in the experiment with human GPCRs (setting [9]), the pIC50_value is 7.5. In addition, the pKi_value is listed as 8.1 at human GPCRs (setting [9]) and 10.3 at human GPCRs (receptor nmbr_human (NMBR, P28336)). In addition, the “Emax, Tango (fold over basal)” value on BB3 [4] (BB3, mean, SEM and n) is 5.0 fold over basal. Besides, the “pEC50, Tango (fold over basal)” value on BB3 [4] (BB3, mean, SEM and n) was 5.67. Also, on BB3 [5] (BB3, mean, SEM and n), the “Emax, IP1” value was 81.0 nM.
For `CSCC[C@H](NC(=O)[C@H](CC(C)C)NC(=O)[C@H](Cc1c[nH]cn1)NC(=O)CNC(=O)[C@@H](NC(=O)[C@H](C)NC(=O)[C@H](Cc1c[nH]c2ccccc12)NC(=O)[C@H](Cc1c[nH]cn1)NC(=O)[C@H](CC(N)=O)NC(=O)CNC(=O)[C@H](CCCNC(=N)N)NC(=O)[C@@H]1CCCN1C(=O)[C@H](Cc1ccc(O)cc1)NC(=O)[C@H](CCSC)NC(=O)[C@H](CCCCN)NC(=O)[C@@H](NC(=O)[C@H](CC(C)C)NC(=O)[C@@H](NC(=O)[C@@H](NC(=O)CNC(=O)CNC(=O)CNC(=O)[C@H](C)NC(=O)[C@@H]1CCCN1C(=O)[C@H](CC(C)C)NC(=O)[C@@H]1CCCN1C(=O)[C@@H](N)C(C)C)[C@@H](C)O)C(C)C)[C@@H](C)O)C(C)C)C(N)=O` [Peptide 167, gastrin-releasing peptide, reference compound], at BB3 [2] (pEC50, internalization, BB3), the EC50 is more than 10000 nM. Also, in the experiment on human GPCRs (setting [9]), the pIC50_value is given as 10 and the pKi_value is reported as 8.2. Besides, the EC50 on BB3 [4] (setting [10]) is more than 10000 nM.
Regarding RFGIPMDRIGRNRLSNSRG [128 original], the “Internalization assays Emax (AUC)” value on GPR68 [7] was 8.3. Moreover, the “DMR assays Emax (peak or AUC)” value on GPR68 [8] is reported as 893047.
